The text below walks through data of patent US11992489B2, “Substituted tetrahydroquinoline compounds as indoleamine 2,3-dioxygenase inhibitors” (Merck Sharp & Dohme LLC, priority 2018, dated 2024).

Each structure is given as a SMILES string.

In general, IC50 refers to the concentration needed to halve the response being measured.

IDO1, sequence (P14902 whole entry): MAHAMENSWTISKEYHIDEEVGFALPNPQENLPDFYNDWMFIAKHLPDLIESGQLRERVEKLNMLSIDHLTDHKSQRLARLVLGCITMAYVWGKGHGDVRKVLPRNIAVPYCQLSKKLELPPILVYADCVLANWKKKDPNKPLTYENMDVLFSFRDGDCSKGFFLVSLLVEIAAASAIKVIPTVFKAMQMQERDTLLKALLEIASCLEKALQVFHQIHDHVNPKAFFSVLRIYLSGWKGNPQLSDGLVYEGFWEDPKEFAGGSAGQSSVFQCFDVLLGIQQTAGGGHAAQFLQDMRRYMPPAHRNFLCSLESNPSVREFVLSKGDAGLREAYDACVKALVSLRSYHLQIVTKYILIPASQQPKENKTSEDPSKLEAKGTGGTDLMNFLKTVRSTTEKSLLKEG

The assay has as its target IDO1 (Homo sapiens, UniProt P14902). Description: IDO1 cellular assay in HeLa cells stimulated with IFNγ. The conditions noted are these: IFNγ 100 ng/mL, 300 uM L-tryptophan, about 48 hours, fluorescence readout, read-out: HeLa Cell Potency, IC50. In kind it is cell-based. On the procedure:
Biological Assays IDO1 Cellular Assay in HeLa Cells Stimulated with IFNγ
HeLa cells were cultured in complete HeLa culture medium (90% EMEM, 10% heat-inactivated fetal bovine serum) and expanded to about 1×10^9 cells. The cells were then collected and frozen down at 1×10^7 cells/vial in 1 mL frozen medium (90% complete HeLa culture medium, 10% DMSO).
Compounds to be tested were serially diluted in ten 3-fold steps in DMSO starting from 10 mM DMSO stocks in Echo low volume plate(s). Compound dilutions or DMSO alone were then dispensed from the dilution plate(s) into Greiner black 384-well assay plate(s) (catalog #781086, 50 nL/well) using an Echo 550 acoustic liquid handler (Labcyte).
Frozen HeLa cells were thawed and transferred into HeLa assay medium (99% complete HeLa culture medium, 1% Pen/Strep) with 20 mL medium/vial of cells. The cells were spun down at 250 g in a table top centrifuge for 5 min and suspended in same volume of HeLa assay medium. The cells were then counted and adjusted to a density of 2×10^5 cells/mL in HeLa assay medium. Sterile L-tryptophan were added to the cells with final concentration of 300 uM L-tryptophan. A small aliquot (2 mL/plate) of HeLa cells were set aside and were not treated with IFNγ, to serve as the Max-E control.
HeLa cells with and without IFNγ were dispensed to the respective wells of 384-well assay plates containing the compounds. The plates were incubated for about 48 hours at a 37° C., 5% CO2 incubator. Afterwards, 12 μL of 0.5 M methyl isonipecotate in dimethyl sulfoxide were added into each well and the plates were sealed and incubated at 37° C. without CO2 overnight. The plates were centrifuged for 1 min at 200×g. The resulting fluorescence was measured in a Spectramax plate reader (Molecular Devices) with a 400 nm excitation filter and a 510 nm emission filter.
The fluorescence intensity of each well was corrected for the background observed in wells with non-IFNγ-treated cells and was expressed as a fraction of the intensity observed in wells of IFNγ-treated cells and DMSO only. Potencies were calculated by linear least squares fit to the four parameter logistic IC50 equation.
`Cc1ncc(C2CCCc3nc(C4(NC(=O)c5ccc(F)cc5)CC4)ccc32)cn1` (stereo not drawn) [Example 30, 4-fluoro-N-(1-(5-(2-methylpyrimidin-5-yl)-5,6,7,8-tetrahydroquinolin-2-yl)cyclopropyl)benzamide]: the IC50 was determined as 1420 nM.

For `O=C(NC1(c2ccc3c(n2)CCCC3c2cncc(C(F)(F)F)c2)CC1)c1ccc(F)cc1` (stereo not drawn) [Example 28, 4-fluoro-N-(1-(5-(5-(trifluoromethyl)pyridin-3-yl)-5,6,7,8-tetrahydroquinolin-2-yl)cyclopropyl)benzamide], the IC50 worked out at 212 nM.

As to `Cc1ncc(OC2CCCc3nc(C4(NC(=O)c5ccc(F)cc5)CC4)ccc32)cn1` (stereo not drawn) [Example 15, 4-fluoro-N-(1-(5-((2-methylpyrimidin-5-yl)oxy)-5,6,7,8-tetrahydroquinolin-2-yl)cyclopropyl)benzamide], the IC50 was 130 nM.

For the molecule `O=C(NC1(c2ccc3c(n2)CCCC3Oc2cncc(Cl)c2)CC1)c1ccc(F)cc1` (stereo not drawn) [Example 11, N-(1-(5-((5-chloropyridin-3-yl)oxy)-5,6,7,8-tetrahydroquinolin-2-yl)cyclopropyl)-4-fluorobenzamide], the IC50 is 3.96 nM.

`Cc1nccc([C@@H]2CCCc3nc(C4(NC(=O)c5ccc(F)cc5)CC4)ccc32)n1` (single isomer, unassigned) [Example 22]: the IC50 worked out at 41.3 nM.

For the molecule `CN(C)c1ncc(OC2CCCc3nc(C4(NC(=O)c5ccc(F)cc5)CC4)ccc32)cn1` (stereo not drawn) [Example 14, N-(1-(5-((2-(dimethylamino)pyrimidin-5-yl)oxy)-5,6,7,8-tetrahydroquinolin-2-yl)cyclopropyl)-4-fluorobenzamide], the IC50 stood at 81.4 nM.

Consider `CCC(NC(=O)c1ccc(F)cc1)c1ccc2c(n1)CCCC2c1cncc(C)c1` (stereo not drawn) [Example 27, 4-fluoro-N-(1-(5-(5-methylpyridin-3-yl)-5,6,7,8-tetrahydroquinolin-2-yl)propyl)benzamide], for which the IC50 was found to be 643 nM.

For the molecule `CCC(NC(=O)c1ccc(F)cc1)c1ccc2c(n1)CCCC2c1cncc(F)c1` (stereo not drawn) [Example 25, 4-fluoro-N-(1-(5-(5-fluoropyridin-3-yl)-5,6,7,8-tetrahydroquinolin-2-yl)propyl)benzamide], the IC50 turned out to be 2190 nM.

Take `O=C(NC1(c2ccc3c(n2)CCCC3Nc2cccc(Cl)c2)CC1)c1ccc(F)cc1` (stereo not drawn) [Example 17, N-(1-(5-((3-chlorophenyl)amino)-5,6,7,8-tetrahydroquinolin-2-yl)cyclopropyl)-4-fluorobenzamide]: the IC50 was determined as 38.2 nM.

As for `Cc1ccncc1OC1CCCc2nc(C3(NC(=O)c4ccc(F)cc4)CC3)ccc21` (stereo not drawn) [Example 10, 4-fluoro-N-(1-(5-((4-methylpyridin-3-yl)oxy)-5,6,7,8-tetrahydroquinolin-2-yl)cyclopropyl)benzamide], the IC50 came out at 108 nM.

As for `O=C(NC1(c2ccc3c(n2)CCCC3OCC2CC2)CC1)c1ccc(F)cc1` (single isomer, unassigned) [Example 20, N-(1-(5-(cyclopropylmethoxy)-5,6,7,8-tetrahydroquinolin-2-yl)cyclopropyl)-4-fluorobenzamide], the half-inhibitory concentration (IC50) turned out to be 95.4 nM.

In the case of `O=C(NC1(c2ccc3c(n2)CCCC3OCC2CC2)CC1)c1ccc(F)cc1` (single isomer, unassigned) [Example 19, N-(1-(5-(cyclopropylmethoxy)-5,6,7,8-tetrahydroquinolin-2-yl)cyclopropyl)-4-fluorobenzamide], the IC50 was determined as 65.9 nM.

For the molecule `CCC(NC(=O)c1ccc(F)cc1)c1ccc2c(n1)CCCC2c1cncc(C(F)(F)F)c1` (stereo not drawn) [Example 29, 4-fluoro-N-(1-(5-(5-(trifluoromethyl)pyridin-3-yl)-5,6,7,8-tetrahydroquinolin-2-yl)propyl)benzamide], the IC50 was determined as 854 nM.

As for `O=C(NC1(c2ccc3c(n2)CCCC3Nc2cccc(Cl)c2)CC1)c1ccc(F)cc1` (stereo not drawn) [Example 16, N-(1-(5-((3-chlorophenyl)amino)-5,6,7,8-tetrahydroquinolin-2-yl)cyclopropyl)-4-fluorobenzamide], the IC50 worked out at 13.9 nM.

With `O=C(NC1(c2ccc3c(n2)CCCC3Oc2cncc(Cl)c2)CC1)c1ccc(F)cc1` (stereo not drawn) [Example 7, N-(1-(5-((5-chloropyridin-3-yl)oxy)-5,6,7,8-tetrahydroquinolin-2-yl)cyclopropyl)-4-fluorobenzamide], the IC50 was determined as 5.32 nM.

Consider `N#Cc1cccc(OC2CCCc3nc(C4(NC(=O)c5ccc(F)cc5)CC4)ccc32)c1` (stereo not drawn) [Example 8, N-(1-(5-(3-cyanophenoxy)-5,6,7,8-tetrahydroquinolin-2-yl)cyclopropyl)-4-fluorobenzamide], for which the half-maximal inhibitory concentration (IC50) came out at 2.16 nM.

In the case of `Cc1nccc([C@H]2CCCc3nc(C4(NC(=O)c5ccc(F)cc5)CC4)ccc32)n1` (single isomer, unassigned) [Example 23], the concentration for half-maximal inhibition (IC50) came out at 42.3 nM.

As for `O=C(NC1(c2ccc3c(n2)CCCC3Oc2ccc(F)nc2)CC1)c1ccc(F)cc1` (stereo not drawn) [Example 5, 4-fluoro-N-(1-(5((6-fluoropyridin-3-yl)oxy)-5,6,7,8-tetrahydroquinolin-2-yl)cyclopropyl)benzamide], the IC50 stood at 12.4 nM.

For `Cc1cncc(C2CCCc3nc(C4(NC(=O)c5ccc(F)cc5)CC4)ccc32)c1` (stereo not drawn) [Example 26, 4-fluoro-N-(1-(5-(5-methylpyridin-3-yl)-5,6,7,8-tetrahydroquinolin-2-yl)cyclopropyl)benzamide], the IC50 came to 183 nM.

Turning to `CN(C)c1ncc(OC2CCCc3nc(C4(NC(=O)c5ccc(F)cc5)CC4)ccc32)cn1` (single isomer, unassigned) [Example 4, N-(1-(5-((2-(dimethylamino)pyrimidin-5-yl)oxy)-5,6,7,8-tetrahydroquinolin-2-yl)cyclopropyl)-4-fluorobenzamide], the IC50 was determined as 9.34 nM.

On to `Cc1nccc(C2CCCc3nc(C4(NC(=O)c5ccc(F)cc5)CC4)ccc32)n1` (stereo not drawn) [Example 21, 4-Fluoro-N-(1-(5-(2-methylpyrimidin-4-yl)-5,6,7,8-tetrahydroquinolin-2-yl)cyclopropyl)benzamide], for which the IC50 came to 25 nM.

With `Cc1ncc(OC2CCCc3nc(C4(NC(=O)c5ccc(F)cc5)CC4)ccc32)cn1` (stereo not drawn) [Example 13, 4-fluoro-N-(1-(5-((2-methylpyrimidin-5-yl)oxy)-5,6,7,8-tetrahydroquinolin-2-yl)cyclopropyl)benzamide], the IC50 stood at 44.5 nM.

On to `N#Cc1cccc(OC2CCCc3nc(C4(NC(=O)c5ccc(F)cc5)CC4)ccc32)c1` (stereo not drawn) [Example 12, N-(1-(5-(3-cyanophenoxy)-5,6,7,8-tetrahydroquinolin-2-yl)cyclopropyl)-4-fluorobenzamide], for which the IC50 worked out at 5.69 nM.

As to `O=C(NC1(c2ccc3c(n2)CCCC3Oc2ccc(F)nc2)CC1)c1ccc(F)cc1` (stereo not drawn) [Example 9, 4-fluoro-N-(1-(5((6-fluoropyridin-3-yl)oxy)-5,6,7,8-tetrahydroquinolin-2-yl)cyclopropyL)benzamide], the IC50 turned out to be 24.4 nM.

On to `O=C(NC1(c2ccc3c(n2)CCCC3OCC2CC2)CC1)c1ccc(F)cc1` (stereo not drawn) [Example 18, N-(1-(5-(cyclopropylmethoxy)-5,6,7,8-tetrahydroquinolin-2-yl)cyclopropyl)-4-fluorobenzamide], for which the IC50 was determined as 58.6 nM.

As for `O=C(NC1(c2ccc3c(n2)CCCC3c2cncc(F)c2)CC1)c1ccc(F)cc1` (stereo not drawn) [Example 24, 4-Fluoro-N-(1-(5-(5-fluoropyridin-3-yl)-5,6,7,8-tetrahydroquinolin-2-yl)cyclopropyl)benzamide], the IC50 came out at 384 nM.

Turning to `Cc1ccncc1OC1CCCc2nc(C3(NC(=O)c4ccc(F)cc4)CC3)ccc21` (stereo not drawn) [Example 6, 4-fluoro-N-(1-(5((4-methylpyridin-3-yl)oxy)-5,6,7,8-tetrahydroquinolin-2-yl)cyclopropyl)benzamide], the IC50 was 9.96 nM.
